Results reported in ChEMBL document CHEMBL3745655, “Novel carbocyclic nucleoside analogs suppress glomerular mesangial cells proliferation and matrix protein accumulation through ROS-dependent mechanism in the diabetic milieu. II. Acylhydrazone-functionalized pyrimidines” (Bioorg Med Chem Lett, 2016).
The source made the active and inactive calls. No cut-off for these calls is given here.

Experiments:
Assay type in all cases: functional
[1] = Antidiabetic activity in 24 hrs serum-deprived rat glomerular mesangial cells assessed as reduction of high glucose-induced fibronectin and beta-actin expression ratio at 5 uM after 48 hrs by Western blot analysis relative to control
[2] = Antidiabetic activity in 24 hrs serum-deprived rat glomerular mesangial cells assessed as reduction of high glucose-induced fibronectin and beta-actin expression ratio at 1 uM after 48 hrs by Western blot analysis relative to control
[3] = Antidiabetic activity in 24 hrs serum-deprived rat glomerular mesangial cells assessed as reduction of high glucose-induced fibronectin and beta-actin expression ratio at 0.5 uM after 48 hrs by Western blot analysis relative to control
Rattus norvegicus = species on record: Rattus norvegicus; assay: Protection against high glucose-induced increase of cell proliferation in rat glomerular mesangial cells after 48 hrs by MTT assay
[4] = Antidiabetic activity in 24 hrs serum-deprived rat glomerular mesangial cells assessed as reduction of high glucose-induced ROS production at 1 uM after 48 hrs by DHE staining
[5] = Antidiabetic activity in 24 hrs serum-deprived rat glomerular mesangial cells assessed as reduction of high glucose-induced ROS production at 5 uM after 48 hrs by DHE staining
[6] = Antidiabetic activity in 24 hrs serum-deprived rat glomerular mesangial cells assessed as reduction of high glucose-induced fibronectin and beta-actin expression ratio at 0.25 uM after 48 hrs by Western blot analysis relative to control

CCOC(=O)[C@H]1C/C(=N\NC(=O)CCn2ccc(N)nc2=O)C[C@H]1C(=O)OCC (racemic)
Ratio [1]: 125 | Ratio [2]: 91 | Ratio [3]: 95.1

O=C(CCn1ccc(O)nc1=O)NN=C1CCCC1
Ratio [1]: 64.3 | Ratio [2]: 84.8 | Activity (Rattus norvegicus): Active | Activity [4]: Active | Ratio [3]: 100

NNC(=O)CCn1ccc(O)nc1=O
Ratio [1]: 85.4 | Ratio [2]: 80.5 | Activity (Rattus norvegicus): Active | Activity [5]: Active | Ratio [3]: 101

O=C1C[C@H](C(=O)O)[C@H](C(=O)O)C1
Ratio [1]: 121 | Ratio [2]: 145 | Ratio [6]: 129 | Ratio [3]: 149

CCOC(=O)C1CCC/C1=N\NC(=O)CCn1cc(C)c(O)nc1=O (racemic)
Ratio [1]: 91.6 | Ratio [2]: 96.5 | Activity (Rattus norvegicus): inactive | Ratio [3]: 88.8

CCOC(=O)[C@@H]1CC(=NNC(=O)CCn2cc(C)c(O)nc2=O)C[C@H]1C(=O)OCC (racemic)
Ratio [1]: 87.6 | Ratio [2]: 90.8 | Ratio [3]: 94.2

Nc1ccn(CCC(=O)N/N=C2\C[C@H](C(=O)O)[C@H](C(=O)O)C2)c(=O)n1 (racemic)
Ratio [1]: 113 | Ratio [2]: 142 | Ratio [6]: 136 | Ratio [3]: 143

Nc1ccn(CCC(=O)NN=C2C[C@@H](C(=O)O)[C@H](C(=O)O)C2)c(=O)n1 (racemic)
Ratio [1]: 107 | Ratio [2]: 128 | Ratio [6]: 123 | Ratio [3]: 126

CCOC(=O)C1CCCC1=O (racemic)
Ratio [1]: 137 | Ratio [2]: 88.3 | Ratio [6]: 109 | Ratio [3]: 110

Nc1ccn(CCC(=O)NN=C2CCCC2)c(=O)n1
Ratio [1]: 275 | Ratio [2]: 213 | Ratio [3]: 218

CCOC(=O)[C@@H]1CC(=O)C[C@H]1C(=O)OCC (racemic)
Ratio [1]: 79.7 | Ratio [2]: 86.3 | Ratio [6]: 82.4 | Ratio [3]: 90.2

CCOC(=O)[C@@H]1CC(=NNC(=O)CCn2ccc(O)nc2=O)C[C@H]1C(=O)OCC (racemic)
Ratio [1]: 94 | Ratio [2]: 132 | Activity (Rattus norvegicus): Active | Activity [4]: Active | Ratio [3]: 145

Cc1cn(CCC(=O)NN)c(=O)nc1O
Ratio [1]: 102 | Ratio [2]: 94 | Ratio [3]: 89.2

CCOC(=O)[C@H]1C/C(=N\NC(=O)CCn2cc(C)c(O)nc2=O)C[C@H]1C(=O)OCC (racemic)
Ratio [1]: 81.1 | Ratio [2]: 97.9 | Ratio [3]: 91.9

CCOC(=O)C1CCC/C1=N\NC(=O)CCn1ccc(O)nc1=O (racemic)
Ratio [1]: 106 | Ratio [2]: 126 | Ratio [3]: 127

NNC(=O)CCn1ccc(N)nc1=O
Ratio [1]: 80.8 | Ratio [2]: 81.6 | Ratio [3]: 76.5

Cc1cn(CCC(=O)NN=C2CCCC2)c(=O)nc1O
Ratio [1]: 127 | Ratio [2]: 126 | Ratio [3]: 118

CCOC(=O)C1CCC/C1=N\NC(=O)CCn1ccc(N)nc1=O (racemic)
Ratio [1]: 102 | Ratio [2]: 119 | Ratio [3]: 111

CCOC(=O)[C@H]1CC(=O)C[C@H]1C(=O)OCC
Ratio [1]: 84.2 | Ratio [2]: 88.9 | Ratio [6]: 81.8 | Ratio [3]: 79.8

O=C(CCn1ccc(O)nc1=O)N/N=C1\C[C@H](C(=O)O)[C@H](C(=O)O)C1 (racemic)
Ratio [1]: 117 | Ratio [2]: 96.7 | Ratio [6]: 75.1 | Ratio [3]: 80

CCOC(=O)[C@H]1C/C(=N\NC(=O)CCn2ccc(O)nc2=O)C[C@H]1C(=O)OCC (racemic)
Ratio [1]: 76.5 | Ratio [2]: 93.7 | Activity (Rattus norvegicus): inactive | Ratio [3]: 97.5

Cc1cn(CCC(=O)N/N=C2\C[C@H](C(=O)O)[C@H](C(=O)O)C2)c(=O)nc1O (racemic)
Ratio [1]: 70.7 | Ratio [2]: 72 | Activity (Rattus norvegicus): Active | Activity [4]: Active | Ratio [3]: 80.1

CCOC(=O)[C@@H]1CC(=NNC(=O)CCn2ccc(N)nc2=O)C[C@H]1C(=O)OCC (racemic)
Ratio [1]: 80.6 | Ratio [2]: 96.1 | Activity (Rattus norvegicus): inactive | Ratio [3]: 98.2

O=C(CCn1ccc(O)nc1=O)NN=C1C[C@@H](C(=O)O)[C@H](C(=O)O)C1 (racemic)
Ratio [1]: 96.9 | Ratio [2]: 115 | Ratio [6]: 132 | Ratio [3]: 116

O=C1C[C@@H](C(=O)O)[C@H](C(=O)O)C1 (racemic)
Ratio [1]: 124 | Ratio [2]: 149 | Ratio [6]: 135 | Ratio [3]: 143

Cc1cn(CCC(=O)NN=C2C[C@@H](C(=O)O)[C@H](C(=O)O)C2)c(=O)nc1O (racemic)
Ratio [1]: 63.1 | Ratio [2]: 64.6 | Activity (Rattus norvegicus): Active | Activity [4]: Active | Ratio [3]: 78.4

O=C1CCCC1
Ratio [1]: 129 | Ratio [2]: 114 | Ratio [6]: 82.8 | Ratio [3]: 101
